These results are taken from patent US20090149482A1, “STEREOCHEMICALLY DEFINED DIPEPTIDE ESTERS OF ANTIVIRAL AGENTS FOR ENHANCED OCULAR TREATMENT” (priority 2001, published 2009).

Where two headings read alike, the source gives them in different places.

For one data set, the system named is HCMV. The experiment in a line: In vitro antiviral screening, CPE inhibition in HFF cells. The class given is cell-based, human cytomegalovirus. The following applies: for EC50: HCMV, CPE Inhibition.
Another data set deals with HSV-1 strain McKrae. The experiment in a line: HSV-1 epithelial keratitis rabbit model, topical treatment, SLE scores. The class given is in vivo. The conditions noted are these: 14 days post-inoculation, 1% topical 5 times per day. An excerpt:
(§1) The rabbit eye is an excellent model to study acute HSV-1 epithelial keratitis. Also, spontaneous and induced ocular HSV-1 shedding and corneal epithelial disease in rabbits has been used as a model of human ocular HSV-1 reactivation and recurrence. HSV-1 strain McKrae was used in studies for epithelial keratitis. HSV-1 strain RE was used for studies of HSV stromal keratitis.
i) Epithelial Keratitis: A group of ten rabbits was used to study each compound. Both eyes of all rabbits were used. An aqueous vehicle (like a placebo) and one positive control were obtained using 1% TFT (Viroptic®). Each compound at 1% concentration (TFT=33 mM, Gly-Gly-ACV=26.6 mM, Val-Val-ACV=18.6 mM) were applied (50 μl) topically 5 times per day every two hours starting at 8:00 a.m. and ending at 4:00 p.m. The treatment began on the 3rd post-inoculation day and continued for 5 consecutive days. Slit-lamp examinations were performed once every day for 8 days and thereafter once every other day until lesions resolved.

In the next data set the test system is HSV-1 strain RE. The experiment in a line: HSV-1 stromal keratitis rabbit model, topical treatment, SLE scores. The class given is in vivo. The following applies: 13 days post-inoculation, 1% topical.
Source text: as §1
ii) Stromal Keratitis: The experiment is similar to the part (i) experiment as far as the treatment cycles for all experimental drugs (TFT and Val-Val-ACV) are concerned. The effect of Val-Val-ACV on stromal keratitis induced by intrastromal injection with a high (20 μl of a 1×10^7 pfu/ml stock) titer of HSV-1RE strain was compared to that of TFT. Each compound at 1% concentration (TFT=33 mM, Val-Val-ACV=18.6 mM) was applied topically. The same scoring as noted in Table 4 is used for stromal keratitis. Emphasis is placed on the stromal edema and visibility into the aqueous chamber and the visualization of the pupil and iris.
A group of ten rabbits were used to study each compound. Both eyes of all rabbits were treated. Three to four groups of 10 rabbits are used in one experiment. This includes vehicle control, TFT, and the newly synthesized antiviral Val-Val-ACV.

Data set [1] has as its system human fibroblast foreskin cells (HFF).
For data set [2] the following is noted: rabbits, i.v. infusion, aqueous humor.
The subject of data set [3] is oligopeptide transporter on the rabbit cornea.
The conditions of data set [4]: rat, in vivo, po.
A further data set in a line: physchem. The following applies: buffer, pH 5.6.
A short description of data set [5]: in vitro. The conditions noted are these: human.
A short description of data set [6]: in vitro. The following applies: human, Caco-2, pH 7.4.
Data set [7] is described as follows: in vitro. The conditions noted are these: human. The source holds these as a separate data set.
Data set [8] can be described thus: in vitro. The following applies: male, New Zealand albino, rabbit, tissue homogenate.

In the case of `CC(C)C(N)C(=O)NC(C(=O)OCCOCn1cnc2c(=O)[nH]c(N)nc21)C(C)C` (stereo not drawn) [Val-Val-ACV, Val-Valacyclovir], the EC50 (in general, the concentration at which the effect is half-maximal) in the data set on HCMV was more than 186 µM. In addition, the “Concentration required to achieve an SLE Score of 0.3” value in the data set on HSV-1 strain McKrae was 18.6 mM. Moreover, the “Concentration required to achieve an SLE Score of 0.2” value in the data set with HSV-1 strain RE worked out at 18.6 mM. Moreover, the CC50 in data set [1] (EBV column) is more than 93.1 µM; in [1] (HCMV column) it was more than 186 µM; in [1] (HSV-2 column), more than 186 µM; in data set [1] (VZV column), more than 186 µM; in data set [1] (read-out: CC50 (concentration required to inhibit cell proliferation by 50%), HSV-1), more than 186 µM. Besides, the “MRT(aqueous)” value in data set [2] was “*188.39 min”. Besides, the “Papp (% Control) of [3H] Val-ACV” value in data set [3] is reported as 18.6 (±8.9) % Control. Further, in data set [4], the “amino acid intermediate metabolite after oral administration” value was “no intact amino acid intermediate metabolite VACV could be detected”.
With `CC(C)[C@H](N)C(=O)OCCOCn1cnc2c(=O)[nH]c(N)nc21` [Val-ACV, L-Valine-acyclovir], in the data set on HCMV, the “SI (Selectivity Index) = CC50/EC50” value is “SI > 9”. Besides, in the data set on HCMV (Human betaherpesvirus 5, HFF), the EC50 is 30.8 µM. The “inhibition in transport in presence of Gly-Sar” value in the data set on Caco-2 monolayers is on record as 47 % inhibition. For the same compound, the “Papp (% Control) of [3H] Val-ACV” value in [3] is 20.1 (±6.7) % Control. In addition, the half-life (in general, the time in which the quantity being followed falls by half) in “physchem” is approximately 72 h; in “in vitro [6]” it was 2.06 ± 0.138 h; in “in vitro [8]” (corneal half-life, corneal tissue), 1.42 h; in the data set “in vitro [8]” (t1/2 of conversion to ACV, corneal tissue homogenate) it was approximately 1.42 h. In addition, the CC50 in the data set “in vitro [5]” (CC50 (concentration required to inhibit cell proliferation by 50%), HSV-1) was more than 277 µM; in “in vitro [5]” (CC50, EBV column), more than 138 µM; in “in vitro [5]” (CC50, HCMV column), more than 277 µM; in the data set “in vitro [5]” (CC50, HSV-2 column), more than 277 µM; in “in vitro [5]” (CC50, VZV column), more than 100 µM. Besides, the Papp (as a rule, the rate of passage across a membrane or cell layer, normalised by area and donor concentration) in the data set “in vitro [7]” (Caco-2, pH 6) was 3.01 ± 0.21 ×10⁻⁶ cm/s; in “in vitro [7]” (Caco-2, pH 7.4), 5.67 ± 1.13 ×10⁻⁶ cm/s.
